Test results reported in patent publication US8226943B2, “Antibodies to notch receptors” (OncoMed Pharmaceuticals, Inc., priority 2008, dated 2012).

What was measured:
[1] = test system: B51 breast tumors; assay: Limiting dilution assay of cancer stem cell frequency, B51 breast tumors; assay type: in vivo, NOD-SCID mice; conditions: B51, paclitaxel
From the text: Limiting dilution assays (LDAs) can be used to assess the effect of a Notch-binding agent on solid tumor cancer stem cells and on the tumorigenicity of a tumor comprising the cancer stem cells. The assays can be sued to determine the frequency of cancer stem cells in tumors from animals treated with the Notch-binding agent or other agent and to compare that frequency to the frequency of cancer stem cells in tumors from control animals.
An LDA was used to assess the effect on the tumorigenicity of the B51 breast tumors that were treated with the combination of control antibody (1B711) plus paclitaxel (Taxol) or treated with the combination of 59R1 and paclitaxel, as described above in Example 7. In addition, the effect of treatment of B51 breast tumors with the control antibody alone or 59R1 alone was also determined by LDA. The doses of antibodies and paclitaxel and the schedule of dosing for the control antibody group and the 59R1 group were the same as described in Example 7, above for the other two treatment groups. After three doses of antibodies and/or paclitaxel, tumors were harvested, processed and dissociated into single cells. The human tumor cells were isolated from the xenograft tumor cells by incubation with biotinylated mouse antibodies (α-mouse CD45-biotin1:200 dilution and rat α-mouse H2 Kd-biotin1:100 dilution, BioLegend, San Diego, Calif.) on ice for 30 min, followed by addition of streptavidin-labeled magnetic beads and removal of the mouse cells with the aid of a magnet. The human cells in the suspension were harvested and counted.
A serial titration of cells (30, 90, 270, and 810 cells) from each of the four treatment groups was injected in a 1:1 (v/v) mixture of FACS buffer and Matrigel into a new set of NOD-SCID mice (n=10/group). Tumors were allowed to grow for 72 days. The percentage of mice with detectable tumors was determined in all groups. The cancer stem cell frequency was then calculated using L-Calc™ software (StemCell Technologies Inc.; downloadable from www.stemcell.com/search/default.asp).

[2] = test system: PE13 breast tumors; assay: Microarray analysis of PE13 breast tumors treated with taxol or 59R1 plus taxol; assay type: in vivo, mice; conditions: PE13, Taxol vs. control
Method: In addition to investigating the effects of 59R1 in tumors and the effect on CSC frequency, gene changes were studied following 59R1 treatment in combination with taxol. The experiment was performed in PE13 breast tumors where a decrease in CSC frequency after treatment with 59R1 alone or 59R1 plus taxol treatment had previously been observed (and described herein). Microarray analysis was performed on tumors from the same experiment where limiting dilution analyses of PE13 were carried out for CSC quantification (FIG. 19). Animals bearing PE13 breast tumors were treated three weeks with 59R1 plus taxol, control and taxol prior to harvesting for microarray analysis. Mean differential expression values for taxol vs. control and 59R1 plus taxol vs. taxol treated animals (3 animals per group) were calculated.

## CC(=O)O[C@H]1C(=O)[C@@]2(C)[C@H]([C@H](OC(=O)c3ccccc3)[C@]3(O)C[C@H](OC(=O)[C@H](O)[C@@H](NC(=O)c4ccccc4)c4ccccc4)C(C)=C1C3(C)C)[C@]1(OC(C)=O)CO[C@@H]1C[C@@H]2O [Taxol, paclitaxel, reference compound]
[1]
  increase of frequency of cancer stem cells relative to the control: more than two-fold
[2]
  Fold BMPR1B: 10.2
  Fold BNIP3: −2.1
  Fold EGLN3: −21.1
  Fold HSPB6: 13.4
  Fold ITGAM: 2.2
  Fold LHX8: 4.6
  Fold NDRG1: −9.0
  Fold RARRES1: 6.4
  Fold RARRES3: 2.6
  Fold RBP2: 4.8
  Fold XAF1: 10.6
